Results as given in US11541065B2, “Compositions and methods for treating brain injury” (UNM RAINFOREST INNOVATIONS, priority 2018, dated 2023).

What was measured:
PGE2 = PGE2 release from rat neuronal cultures (enzyme immunoassay / ELISA of culture media); type: cell-based; conditions: rat neurons, L-homocysteine 50 μM four hours, with DL-AP5 200 μM, MK801 10 μM, NVP-AAM077 30 nM, Ro 25-6981 1 μM, PD98059 15 μM, SB203580 5 μM, Bengamide B 500 nM or CAY10404 100 nM
Procedure: (§1) Neuron cultures were treated with or without L-homocysteine in the presence or absence of pharmacological inhibitors for the time period specified in each experiment. The medium was collected from each experimental plate and centrifuged at 1000 rpm for five minutes to remove cellular debris. Equal amounts (100 μl) of the supernatant from each sample were used to determine the amount of PGE2 using the PGE2 enzyme immunoassay kit according to the manufacturer's instructions. For measurement of cPLA2 activity, the neuronal cells from the above treated conditions were harvested in ice-cold Tris-buffered saline (pH7.4) containing sodium pyrophosphate as phosphatase inhibitor, sonicated three times with five-second bursts and two minutes on ice between intervals. The lysed cell suspensions were centrifuged at 10,000 rpm for 10 minutes and the supernatant removed. Equal amounts of protein from the supernatant (assessed using BCA protein estimation kit) were estimated for activity of cPLA2 using cPLA2 activity assay kit according to the manufacturer's protocol.
For measurement of PGE2 levels and MCP-1 levels released from neurons, culture medium was collected from each experimental plate and centrifuged at 1000 rpm for five minutes to remove cellular debris. Equal volume (100 μl) of the supernatant from each sample was used to determine PGE2 level using the PGE2 ELISA kit according to the manufacturer's instructions.

COX2 = COX2 protein level in rat neuronal cultures (immunoblot); type: cell-based; conditions: rat neurons, L-homocysteine 50 μM four hours, with MK801 10 μM, NVP-AAM077 30 nM, Ro 25-6981 1 μM, PD98059 15 μM, SB203580 5 μM or Bengamide B 500 nM
Procedure: (§2) Equal protein from total cell lysates obtained from rat and mice neuronal cultures were resolved in 7.5% SDS-PAGE, and subjected to immunoblotting procedure as described earlier (Poddar and Paul, 2009, J Neurochem 110:1095-1106). Blots were analyzed with antibodies as described in each experiment. All primary antibodies (anti-COX2, anti-B-tubulin) and secondary-horse radish peroxidase conjugated antibody concentrations were used according to recommendations provided by the manufacturer. Signals from immune complexes in the blots were developed using West Pico supersignal chemiluminescence reagents and then captured on X-ray films. Densitometric analysis of the images was performed using the Image J software.
Rat and mice neuronal cultures were washed with PBS (pH 7.4), containing sodium pyrophosphate and sodium vanadate as phosphatase inhibitors, and harvested in SDS sample buffer (Laemmli, 1970, Nature 227:680-685). Equal protein from total cell lysates, estimated using BCA kit, was resolved by SDS-PAGE (7.5%) followed by western blotting on PVDF membranes. Immunoblot analysis was performed by first blocking with 5% non-fat dry milk for 1 h at room temperature followed by incubation with either COX2 immunoblot analysis (Poddar and Paul, 2009, J Neurochem 110:1095-1106) as described in each experiment. All primary antibodies and horseradish peroxidase conjugated secondary antibodies were used according to manufacturer's recommendations. Signals from immune complexes in the blots were developed using West Pico supersignal chemiluminescence reagents and then captured on X-ray films. Densitometric analysis of the images was performed using the NIH Image J software.

[Ca^2+]i [1] = Intracellular Ca^2+ by Fura2 imaging, rat neuronal cultures; type: cell-based; conditions: rat neurons
Procedure: (§3) Embryos obtained from pregnant Sprague Dawley rats (16-17-day gestation) or wild type (WT) and GluN2A KO mice (15-16-day gestation) were used to establish primary cortical neuronal cultures as previously described (Poddar and Paul, 2009, J Neurochem 110:1095-1106; Poddar and Paul, 2013, J Neurochem 124:558-570; Poddar et al., 2017, J Neurochem 142:560-573). Neurons were grown on either (a) 35-mm culture dishes (MatTek Corp., Ashland, Mass.) coated overnight with poly-D-lysine (50 μg/ml) and laminin (10 μg/ml) for Ca^2+ imaging studies, (b) poly-D-lysine-coated 60 mm dishes (Corning BIOCOAT, Corning Inc., Corning, N.Y.) for biochemical studies, or (c) poly-D-lysine-coated 4-well culture slides (Corning BIOCOAT, Corning Inc., Corning, N.Y.) for cell death assay. Neurons were maintained in culture for 12-13 days before experiment. The cells were treated with freshly prepared L-homocysteine (50 μM) in Hank's balanced salt solution containing 50 μM of glycine (Lipton et al., 1997, Proceedings of the National Academy of Sciences of the United States of America 94:5923-5928; Poddar and Paul, 2009, J Neurochem 110:1095-1106; Poddar and Paul, 2013, J Neurochem 124:558-570; Poddar et al., 2017, J Neurochem 142:560-573) for the specified time periods. In a parallel series of experiments, cells were treated with glutamate (50 μM) for the specified time periods. Cells were then processed for live cell imaging, immunoblotting or cell death assay. In some experiments EGTA, DL-AP5, NVP-AAM077, Ro 25-6981 or PD98059 was added 15 minutes prior to L-homocysteine or glutamate treatment.
[Ca^2+]i in neurons was determined using the fluorescent indicator, Fura2-AM. Briefly, neurons were loaded with Fura2 (10 μM) in phenol red free Hank's balanced salt solution for 30 minutes at 37° C. followed by post-incubation for 20 minutes (Paul, S. and Connor, J. A., 2010, J Neurochem 114:1107-1118). Time lapse live cell imaging was performed following stimulation using a Nikon Ti Eclipse inverted microscope equipped with Tokai Hit stage top incubator maintained at 37° C. and infused with 95:5% air:CO2 mixture. Fields of 5-8 cells were imaged using a 40× oil immersion objective (Nikon). Fluorescence excitations (340 and 380 nm) were provided with Sutter LB-LS/30 Lambda xenon arc lamp and fluorescence emissions (510 nm) were captured using a CCD camera (Teledyne Photometries, Tucson, Ariz.). NIS Elements AR software was used for data acquisition and analysis. Ratiometric data (340/380 nm) from regions of interest were corrected for background and converted into estimates of [Ca^2+]i. as described previously (Paul, S. and Connor, J. A., 2010, J Neurochem 114:1107-1118) using the equation developed earlier (Grynkiewicz et al., 1985, J Biol Chem 260:3440-3450). Maximum and minimum fluorescence ratios were determined from Fura2 loaded cells treated with ionomycin (5 μM) in calcium containing medium (2 mM) or in calcium free media with EGTA (0.5 mM).

cPLA2 = cPLA2 activity in rat neuronal lysates (enzymatic assay); type: cell-based; conditions: rat neurons, L-homocysteine 50 μM four hours, with MK801 10 μM, NVP-AAM077 30 nM, Ro 25-6981 1 μM, PD98059 15 μM or SB203580 5 μM
Procedure: as §1
For measurement of cPLA2 activity and MCP-1 levels in cell lysates, neuronal lysates were prepared by harvesting neurons in ice-cold Tris-buffered saline (pH 7.4) containing phosphatase inhibitor, sonicated three times in five-second bursts and placed on ice (two minutes) between each burst of sonication. The lysed cell suspensions were centrifuged at 10,000 rpm (10 minutes) and the supernatant was collected in another tube. Equal amounts of protein from the supernatant were processed for cPLA2 activity assay according to the manufacturer's protocol. Equal protein from the lysates were also used to estimate MCP-1 levels using an MCP-1 ELISA kit.

[2] = system: neuron cultures from WT and GluN2A-KO mice; assay: Neuronal cell death by Hoechst DNA staining, WT and GluN2A-KO mouse neuron cultures; type: cell-based; conditions: PD98059 15 μM
Procedure: (§4) Neurons were subjected to staining with Hoechst 33342 dye for 15 minutes, washed extensively with PBS, and analyzed using fluorescent microscopy to assess nuclear damage. Imaging was performed with a Zeiss Axiovert 200M fluorescence microscope with attached AxioCam CCD camera using 20× objective lens (Carl Zeiss, Thomwood, N.Y.). To quantitatively assess the percentage of pyknotic nuclei a total of 1000 cells were counted for each set of experiments. Mean±SEM (n=3) were used for statistical comparison using ANOVA (Bonferroni's multiple comparison test). Differences were considered significant when p<0.05.
(§5) […] Glutamate treated cells were then maintained in their original medium for another 17 hours. For some experiments, neurons were treated with L-homocysteine or glutamate in the presence of NVP-AAM077 or PD98059. The neurons were then fixed and stained with Hoechst 33342 dye as previously described (Poddar and Paul, 2009, J Neurochem 110:1095-1106). Percentage of pyknotic nuclei was quantitatively assessed by fluorescent microscopy to determine the extent of neuronal death.

[3] = system: rat cortical neuronal cultures; assay: Neuronal cell death by Hoechst DNA staining, rat cortical neuron cultures; type: cell-based; conditions: rat neurons, with NVP-AAM077 30 nM or PD98059 15 μM
Procedure: as §4, §5

ERK MAPK [4] = assay: ERK MAPK phosphorylation in rat cortical neuron cultures (immunoblot); type: cell-based; conditions: rat neurons, glutamate 50 μM, 5, 30 or 60 minutes
Excerpt: (§6) Primary cortical neuronal cultures were established from embryos obtained from pregnant Sprague Dawley female rats (16-17 day gestation) as previously described (Podder and Paul, 2009, J Neurochem 110:1095-1106; Poddar and Paul, 2013, J Neurochem 124: 558-570). Primary cortical neuronal cultures were also developed from pregnant wildtype or GluN2A-knockout mice (15-16 day gestation) using similar protocols. The cells were maintained in culture for 12-14 days prior to treatment with homocysteine. L-homocysteine (200 mM stock) was prepared by alkali hydrolysis of L-homocysteine thiolactone hydrochloride followed by neutralization with 2N HCL and maintained in 0.02 mM N-Tris(hydroxymethyl)methyl-2-aminoethanesulfonicd acid (TES) buffer pH 7.4 (Poddar et al., 2001, Circulation 103:2717-2723). For receptor stimulation neurons were treated with freshly prepared 50 μM of L-homocysteine in Hank's balanced salt solution (Podder and Paul, 2009, J Neurochem 110:1095-1106; Poddar and Paul, 2013, J Neurochem 124: 558-570) containing 50 μM of glycine (Lipton et al., 1997, Proc Natl Acad Sci USA 94:5923-5928). In a subset of culture plates, pharmacological inhibitors (NVP-AAM007) were added […] prior to homocysteine addition and maintained during homocysteine treatment. Cells were processed for immunoblotting or Hoechst DNA staining.
as §2, with “(Podder” for “(Poddar”, “(anti-pERK, anti-ERK)” for “(anti-COX2, anti-B-tubulin)”
as §3
Rat and mice neuron cultures were harvested in SDS sample buffer (Laemmli, 1970, Nature 227:680-685). […]

ERK MAPK [5] = assay: ERK MAPK phosphorylation in WT and GluN2A-KO mouse neuron cultures (immunoblot); type: cell-based, mice; conditions: both WT and GluN2A-KO mice cultures, glutamate 50 μM
Excerpt: as §6
as §2, with “(Podder” for “(Poddar”, “(anti-pERK, anti-ERK)” for “(anti-COX2, anti-B-tubulin)”
as §3, with “In some experiments EGTA, DL-AP5, NVP-AAM077, Ro 25-6981 or PD98059 was added 15 minutes prior to L-homocysteine or glutamate treatment.” left out

[Ca^2+]i [6] = Intracellular Ca^2+ by Fura2 imaging, WT and GluN2A KO mouse neuronal cultures; type: cell-based, mice; conditions: neurons from both WT and GluN2A-KO mice, glutamate 50 μM
Procedure: as §3
[Ca^2+]i in neurons was determined using the fluorescent indicator, Fura2-AM. […] Fluorescence excitations (340 and 380 nm) were provided with Sutter LB-LS/30 Lambda xenon arc lamp and fluorescence emissions (510 nm) were captured using a CCD camera (Teledyne Photometries, Tucson, Ariz.). […] Maximum and minimum fluorescence ratios were determined from Fura2 loaded cells treated with ionomycin (5 μM) in calcium containing medium (2 mM) or in calcium free media with EGTA (0.5 mM).

SMILES	effect on homocysteine-induced PGE2 release (PGE2)	effect on homocysteine-induced increase in COX2 protein level (COX2)	effect on homocysteine-mediated increase in cPLA2 activity (cPLA2)	further results
CCCCCCCCCCCCCC(=O)O[C@H]1CC[C@H](NC(=O)[C@H](OC)[C@H](O)[C@@H](O)[C@H](O)/C=C/C(C)C)C(=O)N(C)C1 [Bengamide B]	significant decrease in PGE2 level	attenuates homocysteine-induced increase in COX2 protein level		
CS(=O)(=O)c1ccc(-c2noc(C(F)(F)F)c2-c2ccccc2)cc1 [CAY10404]	significantly reduced			
O=C(O)CN(CCOCCOCCN(CC(=O)O)CC(=O)O)CC(=O)O [EGTA]				effect on homocysteine-induced increase in Fura2 fluorescence ratio and [Ca^2+]i ([Ca^2+]i [1]; somata and processes, L-homocysteine 50 μM 60 minutes, with EGTA 2 mM, DL-AP5 200 μM, NVP-AAM077 30 nM or Ro 25-6981 1 μM): are blocked
C[C@]12N[C@H](Cc3ccccc31)c1ccccc12 [MK801]	significantly reduced	blocks homocysteine induced COX2 protein expression	is blocked	
COc1cccc(-c2cc(=O)c3ccccc3o2)c1N [PD98059]	decreases significantly	significantly reduced	significantly attenuates homocysteine-mediated increase in cPLA2 activity	effect on homocysteine-induced neurotoxicity ([2]; neurons from WT mice, L-Hcy 50 μM 18 hours): significantly reduced; effect on glutamate-induced neurotoxicity ([2]; neurons from either WT or GluN2A KO mice, glutamate 50 μM one hour then 17 hours): fails to reduce glutamate-induced neurotoxicity; effect on homocysteine-induced neuronal death ([3]; L-homocysteine 50 μM 18 hours): attenuates homocysteine-induced neurotoxicity; effect on glutamate induced neuronal cell death ([3]; glutamate 50 μM one hour then 17 hours in original medium): remain unaffected
C[S+]([O-])c1ccc(-c2nc(-c3ccncc3)c(-c3ccc(F)cc3)[nH]2)cc1 (stereo not drawn) [SB203580]	significant reduction	significant reduction	significant reduction	
N[C@@H](CCC(=O)O)C(=O)O [glutamate]				ERK MAPK phosphorylation (ERK MAPK [4]): rapid but transient increase in ERK MAPK phosphorylation; increase in [Ca^2+]i ([Ca^2+]i [1]; glutamate 50 μM, within 2.5 minutes): approximately 21 fold; ERK MAPK phosphorylation (ERK MAPK [5]): rapid but transient increase in ERK MAPK phosphorylation; Fura2 fluorescence ratio and [Ca^2+]i ([Ca^2+]i [6]): rapid increase in Fura2 fluorescence ratio and [Ca^2+]i
